Results from patent US20200405697A1, “Antitumor Agent” (Taiho Pharmaceutical Co., Ltd, priority 2017, published 2020).

Each compound was assayed against T1, human RNR (histidine tagged human M1 and human M2 proteins) (Homo sapiens, UniProt P23921) (assay: Human RNR inhibition effect (dCDP formation from CDP)). Conditions: 10 μM CDP, 37° C. for 30 minutes, read-out: RNR inhibitory activity IC50.
T1 construct: made in house; host or cells: Escherichia coli
T1 sequence (P23921 1-792): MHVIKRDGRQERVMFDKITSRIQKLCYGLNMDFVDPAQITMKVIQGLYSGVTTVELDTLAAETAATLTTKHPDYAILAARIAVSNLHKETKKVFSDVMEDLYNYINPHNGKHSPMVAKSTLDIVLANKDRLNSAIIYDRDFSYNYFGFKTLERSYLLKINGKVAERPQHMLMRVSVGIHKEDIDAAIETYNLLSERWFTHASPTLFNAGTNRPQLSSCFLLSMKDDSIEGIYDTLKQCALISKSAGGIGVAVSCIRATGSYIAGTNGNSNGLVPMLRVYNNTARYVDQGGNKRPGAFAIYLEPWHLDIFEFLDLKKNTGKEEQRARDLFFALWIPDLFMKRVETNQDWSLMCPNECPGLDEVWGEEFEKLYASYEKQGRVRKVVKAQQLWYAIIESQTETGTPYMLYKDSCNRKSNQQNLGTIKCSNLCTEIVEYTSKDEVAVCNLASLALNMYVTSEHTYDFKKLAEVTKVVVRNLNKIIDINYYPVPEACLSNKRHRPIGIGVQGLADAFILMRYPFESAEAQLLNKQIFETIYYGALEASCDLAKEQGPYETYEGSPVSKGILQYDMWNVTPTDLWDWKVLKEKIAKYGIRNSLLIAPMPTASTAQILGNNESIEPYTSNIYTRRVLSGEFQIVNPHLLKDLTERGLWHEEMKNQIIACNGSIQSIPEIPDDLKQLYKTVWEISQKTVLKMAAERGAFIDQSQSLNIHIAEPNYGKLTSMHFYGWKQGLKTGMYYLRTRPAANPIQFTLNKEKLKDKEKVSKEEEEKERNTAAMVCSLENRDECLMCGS
Format: biochemical
Outline: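 His-tagged human M1 (isoform 1) and N-terminal 59-aa-truncated M2 (isoform 2), E. coli-expressed, Ni-purified, preincubated 20 min with compound (1% DMSO). Reaction with 10 μM CDP, 2 mM ATP, 0.24 mM NADPH, 6 mM DTT, 4 mM Mg acetate, 100 mM KCl, 50 mM HEPES pH 7.2, 30 min at 37° C. dCDP formed quantified by reverse-phase HPLC after heat stop.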

| IC50 | SMILES |
| --- | --- |
| 0.12 µM | Cc1ccc(F)c([C@@H](C)[C@H](NS(=O)(=O)c2cc(F)c(Cl)cc2C(N)=O)c2n[nH]c(=O)o2)c1C [Example 255, 5-chloro-4-fluoro-2-(N-((1S,2R)-2-(6-fluoro-2,3-dimethylphenyl)-1-(5-oxo-4,5-dihydro-1,3,4-oxadiazol-2-yl)propyl)sulfamoyl)benzamide] |
| 0.42 µM | Cc1ccc(F)c([C@@H](C)[C@H](NS(=O)(=O)c2c(Cl)cc(Cl)cc2C(N)=O)c2n[nH]c(=O)o2)c1C [Example 256, 3,5-dichloro-2-(N-((1S,2R)-2-(6-fluoro-2,3-dimethylphenyl)-1-(5-oxo-4,5-dihydro-1,3,4-oxadiazol-2-yl)propyl)sulfamoyl)benzamide] |
| 0.1 µM | Cc1cc(S(=O)(=O)N[C@H](c2n[nH]c(=O)o2)[C@H](C)c2c(F)ccc(C)c2C)c(C(N)=O)cc1Cl [Example 257, 5-chloro-2-(N-((1S,2R)-2-(6-fluoro-2,3-dimethylphenyl)-1-(5-oxo-4,5-dihydro-1,3,4-oxadiazol-2-yl)propyl)sulfamoyl)-4-methylbenzamide] |
| 0.14 µM | Cc1ccc(F)c([C@@H](C)[C@H](NS(=O)(=O)c2c(F)cc(Cl)cc2C(N)=O)c2n[nH]c(=O)o2)c1C [Example 258, 5-chloro-3-fluoro-2-(N-((1S,2R)-2-(6-fluoro-2,3-dimethylphenyl)-1-(5-oxo-4,5-dihydro-1,3,4-oxadiazol-2-yl)propyl)sulfamoyl)benzamide] |
| 0.1 µM | COc1cc(S(=O)(=O)N[C@H](c2n[nH]c(=O)o2)[C@H](C)c2c(F)ccc(C)c2C)c(C(N)=O)cc1Cl [Example 259, 5-chloro-2-(N-((1S,2R)-2-(6-fluoro-2,3-dimethylphenyl)-1-(5-oxo-4,5-dihydro-1,3,4-oxadiazol-2-yl)propyl)sulfamoyl)-4-methoxybenzamide] |
| 0.36 µM | COc1cc(C(N)=O)c(S(=O)(=O)N[C@H](c2n[nH]c(=O)o2)[C@H](C)c2c(F)ccc(C)c2C)cc1OC [Example 260, 2-(N-((1S,2R)-2-(6-fluoro-2,3-dimethylphenyl)-1-(5-oxo-4,5-dihydro-1,3,4-oxadiazol-2-yl)propyl)sulfamoyl)-4,5-dimethoxybenzamide] |
| 0.09 µM | Cc1ccc(F)c([C@@H](C)[C@H](NS(=O)(=O)c2cc3c(cc2C(N)=O)OCCO3)c2n[nH]c(=O)o2)c1C [Example 261, 7-(N-((1S,2R)-2-(6-fluoro-2,3-dimethylphenyl)-1-(5-oxo-4,5-dihydro-1,3,4-oxadiazol-2-yl)propyl)sulfamoyl)-2,3-dihydrobenzo[b][1,4]dioxin-6-carboxamide] |
| 0.13 µM | Cc1ccc(F)c([C@@H](C)[C@H](NS(=O)(=O)c2cc([N+](=O)[O-])c(Cl)cc2C(N)=O)c2n[nH]c(=O)o2)c1C [Example 262, 5-chloro-2-(N-((1S,2R)-2-(6-fluoro-2,3-dimethylphenyl)-1-(5-oxo-4,5-dihydro-1,3,4-oxadiazol-2-yl)propyl)sulfamoyl)-4-nitrobenzamide] |
| 0.07 µM | Cc1ccc(F)c([C@@H](C)[C@H](NS(=O)(=O)c2cc(OCC(F)F)ccc2C(N)=O)c2n[nH]c(=O)o2)c1C [Example 263, 4-(2,2-difluoroethoxy)-2-(N-((1S,2R)-2-(6-fluoro-2,3-dimethylphenyl)-1-(5-oxo-4,5-dihydro-1,3,4-oxadiazol-2-yl)propyl)sulfamoyl)benzamide] |
| 0.06 µM | Cc1c(Br)ccc(F)c1[C@@H](C)[C@H](NS(=O)(=O)c1ncc(Cl)cc1C(N)=O)c1n[nH]c(=O)o1 [Example 264, 2-(N-((1S,2R)-2-(3-bromo-6-fluoro-2-methylphenyl)-1-(5-oxo-4,5-dihydro-1,3,4-oxadiazol-2-yl)propyl)sulfamoyl)-5-chloronicotinamide] |
| 0.26 µM | COc1cc(N)ccc1S(=O)(=O)N[C@H](c1n[nH]c(=O)o1)[C@H](C)c1c(F)ccc2ccccc12 [Example 265, 4-amino-N-((1S,2R)-2-(2-fluoronaphthalen-1-yl)-1-(5-oxo-4,5-dihydro-1,3,4-oxadiazol-2-yl)propyl)-2-methoxybenzenesulfonamide] |
| 0.85 µM | C[C@H](c1cccc2c1CCCC2)[C@H](NS(=O)(=O)c1ccc(N)cc1)c1n[nH]c(=O)o1 [Example 266, 4-amino-N-((1S,2R)-1-(5-oxo-4,5-dihydro-1,3,4-oxadiazol-2-yl)-2-(5,6,7,8-tetrahydronaphthalen-1-yl)propyl)benzenesulfonamide] |
| 0.51 µM | COc1cc(N)ccc1S(=O)(=O)N[C@H](c1n[nH]c(=O)o1)[C@H](C)c1cccc2cccc(C)c12 [Example 269, 4-amino-2-methoxy-N-((1S,2R)-2-(8-methylnaphthalen-1-yl)-1-(5-oxo-4,5-dihydro-1,3,4-oxadiazol-2-yl)propyl)benzenesulfonamide] |
| 0.73 µM | COc1cc(N)ccc1S(=O)(=O)N[C@H](c1n[nH]c(=O)o1)[C@H](C)c1cccc2c1CCC2 [Example 270, 4-amino-N-((1S,2R)-2-(2,3-dihydro-1H-inden-4-yl)-1-(5-oxo-4,5-dihydro-1,3,4-oxadiazol-2-yl)propyl)-2-methoxybenzenesulfonamide] |
| 0.23 µM | Cc1ccc(F)c([C@@H](C)[C@H](NS(=O)(=O)c2ccc(Cl)cc2N)c2n[nH]c(=O)o2)c1C [Example 271, 2-amino-4-chloro-N-((1S,2R)-2-(6-fluoro-2,3-dimethylphenyl)-1-(5-oxo-4,5-dihydro-1,3,4-oxadiazol-2-yl)propyl)benzenesulfonamide] |
| 0.66 µM | COC(=O)c1cc(Cl)c(N)cc1S(=O)(=O)N[C@H](c1n[nH]c(=O)o1)[C@H](C)c1c(F)ccc(C)c1C [Example 272, methyl 4-amino-5-chloro-2-(N-((1S,2R)-2-(6-fluoro-2,3-dimethylphenyl)-1-(5-oxo-4,5-dihydro-1,3,4-oxadiazol-2-yl)propyl)sulfamoyl)benzoate] |
| 0.13 µM | Cc1ccc(F)c([C@@H](C)[C@H](NS(=O)(=O)c2ccc(Cl)c3c2OCC(=O)N3CCO)c2n[nH]c(=O)o2)c1C [Example 273, 5-chloro-N-((1S,2R)-2-(6-fluoro-2,3-dimethylphenyl)-1-(5-oxo-4,5-dihydro-1,3,4-oxadiazol-2-yl)propyl)-4-(2-hydroxyethyl)-3-oxo-3,4-dihydro-2H-benzo[b][1,4]oxazine-8-sulfonamide] |
| 0.44 µM | CC(=O)Nc1cc(Cl)ccc1S(=O)(=O)N[C@H](c1n[nH]c(=O)o1)[C@H](C)c1c(F)ccc(C)c1C [Example 274, N-(5-chloro-2-(N-((1S,2R)-2-(6-fluoro-2,3-dimethylphenyl)-1-(5-oxo-4,5-dihydro-1,3,4-oxadiazol-2-yl)propyl)sulfamoyl)phenyl)acetamide] |
| 0.1 µM | Cc1ccc(F)c([C@@H](C)[C@H](NS(=O)(=O)c2ccc(Cl)c3c2OCCN3)c2n[nH]c(=O)o2)c1C [Example 275, 5-chloro-N-((1S,2R)-2-(6-fluoro-2,3-dimethylphenyl)-1-(5-oxo-4,5-dihydro-1,3,4-oxadiazol-2-yl)propyl)-3,4-dihydro-2H-benzo[b][1,4]oxazine-8-sulfonamide] |
| 0.37 µM | CNC(=O)c1cc(Cl)ccc1S(=O)(=O)N[C@H](c1n[nH]c(=O)o1)[C@H](C)c1c(F)ccc(C)c1C [Example 277, 5-chloro-2-(N-((1S,2R)-2-(6-fluoro-2,3-dimethylphenyl)-1-(5-oxo-4,5-dihydro-1,3,4-oxadiazol-2-yl)propyl)sulfamoyl)-N-methylbenzamide] |
| 0.13 µM | Cc1ccc(F)c([C@@H](C)[C@H](NS(=O)(=O)c2ccc(Cl)c3c2OCCC3N)c2n[nH]c(=O)o2)c1C (stereo partly drawn) [Example 278, 4-amino-5-chloro-N-((1S,2R)-2-(6-fluoro-2,3-dimethylphenyl)-1-(5-oxo-4,5-dihydro-1,3,4-oxadiazol-2-yl)propyl)chroman-8-sulfonamide] |
| 0.42 µM | Cc1ccc(F)c([C@@H](C)[C@H](NS(=O)(=O)c2cccc3c2OCCN3)c2n[nH]c(=O)o2)c1C [Example 280, N-((1S,2R)-2-(6-fluoro-2,3-dimethylphenyl)-1-(5-oxo-4,5-dihydro-1,3,4-oxadiazol-2-yl)propyl)-3,4-dihydro-2H-benzo[b][1,4]oxazine-8-sulfonamide] |
| 0.76 µM | Cc1ccc(F)c([C@@H](C)[C@H](NS(=O)(=O)c2cccc3c2CCNC3)c2n[nH]c(=O)o2)c1C [Example 281, N-((1S,2R)-2-(6-fluoro-2,3-dimethylphenyl)-1-(5-oxo-4,5-dihydro-1,3,4-oxadiazol-2-yl)propyl)-1,2,3,4-tetrahydroisoquinoline-5-sulfonamide] |
